According to article PMC12064818, “A general assay platform to study protein pharmacology using ligand-dependent structural dynamics” (Nature Communications, 2025):
Values joined by “and” are separate entries in the source; they are usually repeats but may differ in a detail not shown here. Equal values may be shown once. Where a name gives a salt, the structure may show the parent alone. Read-outs that look alike come from different tables or passages of the source.

Columns and labels:
PKA-N-HiBiT [1] = target: T1, PKA-N-HiBiT (Homo sapiens, UniProt P17612); experiment: PKA peptide phosphorylation, Kinase-Glo Plus (KGP) assay, PKA-N-HiBiT; format: biochemical; set-up: containing amino acids Gly2-Phe351; His10 (N); made in house; host or cells: E. coli BL21(DE3)
Description: (§1) Kinase activity was measured by ATP depletion using the Kinase-Glo Plus (KGP) assay kit (Promega) in 1536-well plate format. […] Controls were added with a Mosquito dispenser (STP LabTech) while compounds were transferred with a pintool to each plate as described in Supplementary Data 8 and incubated for 30 min at ambient temperature. […] Following a 10 min incubation, KGP luminescence was measured with a ViewLux plate reader with 1 sec exposure, with medium to high gain setting, slow speed and 2x binning. Data were normalized to the average of no enzyme control column as 100% kinase inhibition and DMSO control column as 100% phosphorylation reaction progress. See Supplementary Table 5 for additional details.
(§2) Protocol for Abelson kinase (ABL1) and protein kinase A (PKA) peptide phosphorylation assays
(§3) Supplementary Table 5: Protocol for Abelson kinase (ABL1) and protein kinase A (PKA) peptide phosphorylation assays Sequence Param eter Value Description
(§4) 3 Incubation 30 m in Incubate enzym e + com pounds at am bient tem p for 30 m in, protected from light […]
(§5) protocol; dispensed with BioRaptr 2

PKA-N-HiBiT [2] = target: T1, PKA-N-HiBiT; experiment: SDR assay, PKA-N-HiBiT; settings: for SDR Ave Max Response: average maximal response; for PKA SDR: Log [H-89]
PKA = settings: annotation yes/no for kinase library compound; source not given; cited from earlier work
[3] = target: T2, ABL1-N-HiBiT kinase domain (Homo sapiens, UniProt P00519); experiment: ABL1 peptide phosphorylation, Kinase-Glo Plus (KGP) assay, ABL1-N-HiBiT; format: biochemical; set-up: containing amino acid residues Asp233-Ser500; His10 (N); made in house; host or cells: E. coli BL21(DE3); settings: for IC50: read-out: ABL1 KGP Ave IC50
T2 sequence (P00519 233-500): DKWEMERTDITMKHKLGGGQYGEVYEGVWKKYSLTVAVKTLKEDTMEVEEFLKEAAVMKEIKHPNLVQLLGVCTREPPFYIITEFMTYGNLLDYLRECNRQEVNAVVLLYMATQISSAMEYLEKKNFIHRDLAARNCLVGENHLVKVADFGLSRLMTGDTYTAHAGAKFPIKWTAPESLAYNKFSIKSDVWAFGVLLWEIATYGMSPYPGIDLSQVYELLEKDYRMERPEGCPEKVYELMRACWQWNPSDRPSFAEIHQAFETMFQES
Description: as §1, §2, §3, §4, §5

[4] = target: T2, ABL1-N-HiBiT kinase domain; experiment: SDR assay, ABL1-N-HiBiT; settings: for EC50: read-out: SDR Ave SDR50
[5] = PKA-N-HiBiT qHTS, Kinase-Glo Plus, average, read-out: PKA KGP Ave IC50
[6] = read-out: PKA SDR Ave SDR50, PKA-N-HiBiT qHTS, SDR assay, average
[7] = ABL1-N-HiBiT qHTS, average maximal SDR response
[8] = Figure 2i correlation plot data, read-out: ABL1 Enz Assay Mean (PKA KGP assay pIC50) (converted)
[9] = ABL1, Kinase-Glo Plus (KGP), heatmap data, 128 kinase inhibitors
[10] = ABL1-N-HiBiT qHTS, average, unit inferred
[11] = ABL1, SDR, heatmap data, 128 kinase inhibitors
[12] = ABL1-N-HiBiT qHTS, Kinase-Glo Plus (KGP) assay, average
[13] = ABL1-N-HiBiT qHTS, SDR assay, average maximal response
[14] = ABL1-N-HiBiT qHTS, SDR assay, average
[15] = PKA-N-HiBiT […] Std, ligand 62.5 µM Std
[16] = PKA-N-HiBiT 10 nM SDR, ligand 35.7 µM SDR

EC50 (PKA-N-HiBiT [2]) [µM] | SDR Ave Max Response (PKA-N-HiBiT [2]; PKA-N-HiBiT qHTS, SDR assay) | SDR Ave Max Response [4, 7] | ABL1 KGP pIC50 [3, 9] | IC50 [3, 10] [µM] | ABL1 SDR pSDR50 [4, 11] | EC50 [4, 10] [µM] | Compound | Annotated PKA activity (PKA) | also measured
1.26 | – | – | – | – | – | – | Cn1cc(-c2[nH]c3cc(NC(=O)[C@H](N)C4CCCCC4)cc4c3c2C=NNC4=O)cn1 [PF-477736] | – | IC50 (PKA-N-HiBiT [1]; [8]): 4.47 µM
117 | 23.75 | 91.87 | 5.42 | 3.88 | 6.61 | 0.248 | N[C@H]1CC[C@H](Nc2nc(Nc3ccc(C(=O)N4CCCCC4)cc3)c3ncn(-c4cccc(F)c4)c3n2)CC1 [Purfalcamine] | no | IC50 (PKA-N-HiBiT [1]; [8]): 22.9 µM; IC50 (PKA-N-HiBiT [1]; [5]): 30 µM
1.35 | 40.07 | 69.42 | 5.38 | 10.1 | 5.09 | 9.66 | COc1cc(N2CCOCC2)ccc1Nc1ncc(Cl)c(Nc2ccccc2NS(C)(=O)=O)n1 [CZC 54252 HCl] | no | IC50 (PKA-N-HiBiT [1]; [8]): 33.9 µM; IC50 (PKA-N-HiBiT [1]; [5]): 49.9 µM; EC50 (PKA-N-HiBiT [2]; [6]): 1.58 µM
3.98 | – | – | – | – | – | – | CN(c1ncccc1CNc1nc(Nc2ccc3c(c2)CC(=O)N3)ncc1C(F)(F)F)[S+](C)(=O)[O-] [PF-562271 HCl] | – | IC50 (PKA-N-HiBiT [1]; [8]): 44.7 µM
– | 9.65 | – | 4.91 | – | 5.65 | – | Cn1cc(-c2cc3c(N4CCN(c5ncc([C@@](C)(N)c6ccc(F)cc6)cn5)CC4)ncnn3c2)cn1 [Avapritinib] | no | IC50 [3, 12]: 14 µM; SDR Ave Max Response [4, 13]: 77.35; EC50 [4, 14]: 2.26 µM
– | 2.14 | 83.27 | 5.59 | 2.56 | 6.76 | 0.175 | COc1cc2ncnc(Oc3cccc(NC(=O)Nc4cc(C(C)(C)C(F)(F)F)on4)c3)c2cc1OC [CEP-32496] | no | –
– | – | – | – | – | – | – | O=S(=O)(NCCNC/C=C/c1ccc(Br)cc1)c1cccc2cnccc12 [H-89, reference compound] | – | Standard assay statistics Ave RLU (PKA-N-HiBiT [1]; [15]): 21788.2 RLU; Standard assay statistics S:B (PKA-N-HiBiT [1]; [15]): 6.8; Standard assay statistics S:N (PKA-N-HiBiT [1]; [15]): 6.3; Standard assay statistics Z’ (PKA-N-HiBiT [1]; [15]): 0.328; PKA SDR (PKA-N-HiBiT [2]; M -4.45): 61.3 and 59.1 and 49.2; PKA SDR (PKA-N-HiBiT [2]; M -4.75): 61.4 and 58.5 and 52.3; PKA SDR (PKA-N-HiBiT [2]; M -5.05): 60.9 and 55.5 and 49.6; PKA SDR (PKA-N-HiBiT [2]; M -5.35): 55.3 and 45.9 and 48.2; PKA SDR (PKA-N-HiBiT [2]; M -5.65): 48.5 and 39.4 and 60.1; PKA SDR (PKA-N-HiBiT [2]; M -5.95): 47.4 and 33.3 and 39.2; PKA SDR (PKA-N-HiBiT [2]; M -6.25): 38.3 and 24.0 and 33.5; PKA SDR (PKA-N-HiBiT [2]; M -6.55): 31.1 and 18.8 and 27.3; SDR assay statistics Ave RLU (PKA-N-HiBiT [2]; [16]): 31921.7 RLU; SDR assay statistics S:B (PKA-N-HiBiT [2]; [16]): 1.5; SDR assay statistics S:N (PKA-N-HiBiT [2]; [16]): 2.6; SDR assay statistics Z’ (PKA-N-HiBiT [2]; [16]): -0.628
– | 2.55 | 68.08 | 6.87 | 0.141 | – | – | Cc1cc(Nc2ncc3c(n2)N(C)C(=O)N(c2cc(NC(=O)c4cccc(C(F)(F)F)c4)ccc2C)C3)n(C)n1 [Pluripotin] | no | –
– | -18.15 | – | 5.87 | – | 7.09 | – | Cc1ccc(-n2nc(C(C)(C)C)cc2NC(=O)NCc2cc(F)ccc2Oc2ccc3c(cnn3CCO)c2)cc1 [Pexmetinib] | no | IC50 [3, 12]: 1.36 µM; SDR Ave Max Response [4, 13]: 78.07; EC50 [4, 14]: 0.0817 µM
– | 6.32 | 76.14 | 5.68 | 2.11 | 6.18 | 0.667 | COc1cc2nccc(Oc3ccc(NC(=O)Nc4ccc(F)cc4F)c(F)c3)c2cc1OC [KI-8751] | no | –
229 | 20.11 | 71.62 | 5.25 | 5.79 | 6.40 | 0.411 | CN1CCN(Cc2ccc(-c3cnc4[nH]cc(-c5ccc6[nH]ccc6c5)c4c3)cc2)CC1 [URMC-099] | no | –
– | 5.90 | 62.31 | 4.83 | 15.2 | 5.05 | 9.94 | c1ccc(-c2oc3ncnc(NC[C@@H]4CCCO4)c3c2-c2ccccc2)cc1 [AIM-100] | no | –
– | 15.09 | 67.12 | 7.14 | 0.0752 | 8.33 | 0.00499 | CCn1c(=O)c(-c2ccc(Cl)cc2Cl)cc2cnc(Nc3ccc(N4CCNCC4)c(F)c3)nc21 [FRAX-486] | no | –
– | 2.52 | 74.52 | 4.86 | 15.4 | 5.03 | 10.5 | C#Cc1cccc(Nc2ncnc3cc4c(cc23)OCCOCCOCCO4)c1 [Icotinib HCl] | no | –
– | 7.00 | 102.45 | 5.41 | 3.95 | 7.02 | 0.0977 | COc1cc2ncnc(-n3nc(-c4ccccn4)nc3N)c2cc1OC [CP-466722] | no | –

Compound | EC50 (PKA-N-HiBiT [2]) [µM] | SDR Ave Max Response (PKA-N-HiBiT [2]; PKA-N-HiBiT qHTS, SDR assay) | SDR Ave Max Response [4, 7] | ABL1 KGP pIC50 [3, 9] | IC50 [3, 10] [µM] | ABL1 SDR pSDR50 [4, 11] | EC50 [4, 10] [µM] | Annotated PKA activity (PKA) | also measured
O=C(Nc1c[nH]nc1-c1nc2ccc(CN3CCOCC3)cc2[nH]1)NC1CC1 [AT9283] | 0.0437 | 67.79 | – | – | – | – | – | yes | IC50 (PKA-N-HiBiT [1]; [5]): 0.861 µM; EC50 (PKA-N-HiBiT [2]; [6]): 0.0453 µM
Cc1cc(O)c2c(c1)C(=O)c1cc(O)cc(O)c1C2=O [Emodin] | 14.1 | -14.68 | -3.42 | – | – | – | – | no | Efficacy ([3]; KGP Rep 1): 23.75; Hill Coef ([3]; KGP Rep 1): 1.10; Max Resp ([3]; KGP Rep 1): 17.37; CC-v2 ([3]; KGP Rep 1, curve class): 4; Efficacy (PKA-N-HiBiT [1]; KGP Rep 1): -14.49; Hill Coef (PKA-N-HiBiT [1]; KGP Rep 1): 3.19; Max Resp (PKA-N-HiBiT [1]; KGP Rep 1): 8.59; CC-v2 (PKA-N-HiBiT [1]; KGP Rep 1, curve class): 4; EC50 (PKA-N-HiBiT [2]; [6]): 15.2 µM
Cc1n[nH]c2ccc(-c3cncc(OC[C@@H](N)Cc4c[nH]c5ccccc45)c3)cc12 [A-443654] | – | 40.10 | -27.36 | – | – | 5.32 | 5.63 | yes | IC50 (PKA-N-HiBiT [1]; [5]): 2.06 µM; EC50 (PKA-N-HiBiT [2]; [6]): 0.188 µM
Cc1ccc(C(=O)Nc2ccc(CN3CCN(C)CC3)c(C(F)(F)F)c2)cc1C#Cc1cnc2[nH]ncc2c1 [GZD-824] | – | 15.19 | – | – | – | – | – | no | ABL1 KGP pIC50 [3]: 7.96; IC50 [3]: 0.0119 µM; ABL1 SDR pSDR50 [4]: 8.50; SDR Ave Max Response [4]: 79.52; EC50 [4]: 0.00321 µM
c1cc(-c2cc(C3CCNCC3)[nH]n2)ccn1 [ETP 45835 2HCl] | 8.32 | 25.66 | -32.09 | – | – | 5.02 | 9.57 | no | IC50 (PKA-N-HiBiT [1]; [8]): 83.2 µM; EC50 (PKA-N-HiBiT [2]; [6]): 19.7 µM
C[C@@H](NC(=O)c1ncnc(N)c1Cl)c1ncc(C(=O)Nc2cc(C(F)(F)F)c(Cl)cn2)s1 [MLN 2480] | – | -3.66 | 75.61 | 5.20 | 6.55 | 6.54 | 0.287 | no | –
